Measured values from patent publication US11319322B2, “Substituted aryl ether compound, preparation method thereof, pharmaceutical composition and use thereof” (Xiamen University, priority 2017, dated 2022).

Key:
Format in all cases: cell-based
[1] = target: T1, CCDC6-RET-BaF3 (Homo sapiens, UniProt P07949); test: Growth inhibition of CCDC6-RET-BaF3 cells stably transfected with kinase (MTS); settings: 48 h, read-out: CCDC6-RET (IC50/nM)
T1 construct: fused on or other part: Q16204 (Coiled-coil domain-containing protein 6)
In short: (§1)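 BaF3 cells stably expressing CCDC6-RET or KIF5B-RET, or parental BaF3, 2×10^4 cells/well, treated 48 h at 37 °C with 8-point 1:3 dilutions from 10 μM (0.1% DMSO). MTS/PES added 1–4 h, OD490 read; inhibition versus DMSO and blank gave IC50.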

[2] = target: T2, KIF5B-RET-BaF3 (Homo sapiens, UniProt P07949); test: Growth inhibition of KIF5B-RET-BaF3 cells stably transfected with kinase (MTS); settings: 48 h, read-out: KIF5B-RET (IC50/nM)
T2 construct: fused on or other part: P33176 (Kinesin-1 heavy chain)
In short: as §1

[3] = system: wild-type BaF3; test: Growth inhibition of wild-type BaF3 cells, broad-spectrum toxicity (MTS); settings: Mus musculus, 48 h, read-out: WT Ba/F3 (IC50/nM)
Description: Growth inhibitory activity of compounds on cell lines stably transfected with kinase
The activity of compounds against kinase RET is evaluated by their effect of inhibiting growth of cell lines stably transfected with kinase CCDC6-RET-BaF3, KIF5B-RET-BaF3, and wild-type BaF3 (Proc. Natl. Acad. Sci. USA., 2006, 103, 3153-8.). The growth of the cell lines stably transfected with kinase CCDC6-RET-BaF3, KIF5B-RET-BaF3 depends on their kinase activity. If a compound can inhibit the activity of the kinase RET per se or the activity of the RET signaling pathway, the compound can inhibit the growth of BaF3 cells stably transfected with kinase. […] Therefore, a larger ratio between IC50 of a compound to wild-type BaF3 and IC50 of the compound to the cell lines stably transfected with kinase CCDC6-RET-BaF3, KIF5B-RET-BaF3 indicates better targeting.
The specific test method is given as follows:
1) Medium: DMEM (Dulbecco's modified eagle medium) or RPMI 1640 (containing 10% fetal bovine serum, 100 μg/mL ampicillin, 100 μg/mL streptomycin).
2) Reagents: MTS reaction solution (containing 2 mg/mL of MTS [3-(4,5-dimethylthiazol-2-yl)-5-(3-carboxymethoxyphenyl)-2-(4-sulfophenyl)-2H-tetrazolium, inner Salt]; 100 μg/mL PES (phenazine […])).
3) Compound test: cells stably transfected with kinase (CCDC6-RET-BaF3, KIF5B-RET-BaF3) or wild-type BaF3 cells (2×10^4 cells/well) were incubated into a 96-well culture plate, the volume of cell culture fluid was 90 μL, and then 10 μL of the compound at each gradient concentration was added (the highest concentration was 10 μM, which was diluted stepwise by ⅓, and 8 concentration points were set in total; the system contained 0.1% DMSO (dimethyl sulfoxide)). The cell plate with uniformly mixed compound was cultured in a cell culture incubator (37° C.; 5% CO2) for 48 h, then 20 μL of MTS reaction solution was added, uniformly mixed and incubated in the cell culture incubator (37° C.; 5% CO2) for 1-4 hr, OD values at 490 nm were measured by a microplate reader (VARIOSKAN FLASH, Thermo). Three parallels were set in each group of experiments, with 0.1% (a final concentration) DMSO as a negative control, and a medium without cells or compounds as a blank control. The cell growth inhibition rate was calculated by the following formula: Cell growth inhibition rate %=1−(ODexperimental group−ODblank group)/(ODnegative group−ODblank group)×100%
4) IC50 calculation: The semi-inhibitory concentration of the compound acting on cell growth was calculated using GradPad Prism 5 software according to the measured cell growth inhibition rate.

T2 sequence (P07949 whole entry, change not shown, the tested form may be a part): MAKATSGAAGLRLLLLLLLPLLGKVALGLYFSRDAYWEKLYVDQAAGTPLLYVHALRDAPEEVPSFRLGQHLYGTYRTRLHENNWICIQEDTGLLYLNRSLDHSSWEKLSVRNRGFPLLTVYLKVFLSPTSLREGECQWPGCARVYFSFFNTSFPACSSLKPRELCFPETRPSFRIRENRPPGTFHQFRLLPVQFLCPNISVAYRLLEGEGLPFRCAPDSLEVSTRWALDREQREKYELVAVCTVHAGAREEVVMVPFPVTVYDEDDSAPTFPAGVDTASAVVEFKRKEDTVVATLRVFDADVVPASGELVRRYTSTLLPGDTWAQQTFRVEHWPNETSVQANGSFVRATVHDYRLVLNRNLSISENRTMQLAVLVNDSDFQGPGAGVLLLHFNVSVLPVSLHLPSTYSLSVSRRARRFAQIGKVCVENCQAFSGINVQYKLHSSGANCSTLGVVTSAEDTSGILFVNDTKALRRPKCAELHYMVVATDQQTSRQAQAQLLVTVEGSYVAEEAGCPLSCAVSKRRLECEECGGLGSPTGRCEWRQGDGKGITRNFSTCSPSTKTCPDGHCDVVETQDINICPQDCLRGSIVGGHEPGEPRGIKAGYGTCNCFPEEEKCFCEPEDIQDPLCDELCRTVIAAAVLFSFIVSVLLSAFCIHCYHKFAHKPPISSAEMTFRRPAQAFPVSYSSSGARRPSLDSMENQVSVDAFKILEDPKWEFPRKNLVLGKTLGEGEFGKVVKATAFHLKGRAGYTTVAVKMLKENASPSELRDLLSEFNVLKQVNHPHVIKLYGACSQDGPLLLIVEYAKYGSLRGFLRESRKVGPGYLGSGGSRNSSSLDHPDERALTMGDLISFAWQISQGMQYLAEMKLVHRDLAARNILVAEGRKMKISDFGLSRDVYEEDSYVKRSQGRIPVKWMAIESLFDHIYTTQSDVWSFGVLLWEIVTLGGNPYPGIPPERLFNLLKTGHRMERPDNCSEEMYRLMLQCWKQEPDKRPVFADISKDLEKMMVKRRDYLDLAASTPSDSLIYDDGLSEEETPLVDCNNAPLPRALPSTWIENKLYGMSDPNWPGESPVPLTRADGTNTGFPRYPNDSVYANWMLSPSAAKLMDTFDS
T1 sequence (P07949 whole entry, change not shown, the tested form may be a part): as above

SMILES	GI50 [1]	GI50 [2]	IC50 [3]
CN1CCN(Cc2cc(NC(=O)c3cccc(Oc4nc(-c5ccncc5)nc5ccn(C)c45)c3)cc(C(F)(F)F)c2)CC1 [III-p-4]	3230 nM	3650 nM	> 10000 nM
CN1CCN(Cc2ccc(C(=O)Nc3cc(Oc4nc(-c5ccccc5)nc5cc[nH]c45)ccc3Cl)cc2C(F)(F)F)CC1 [III-k-17]	1410 nM	2610 nM	2630 nM
Cc1ccc(Oc2nc(-c3ccsc3)nc3cc[nH]c23)cc1NC(=O)c1ccc(CN2CCN(C)CC2)c(C(F)(F)F)c1 [III-j-4]	1360 nM	1720 nM	3410 nM
Cc1ccc(Oc2nc(-c3cccnc3)nc3c2ncn3C)cc1C(=O)Nc1ccc(CN2CCN(C)CC2)c(C(F)(F)F)c1 [I-n-2]	3210 nM	3640 nM	1610 nM
Cc1ccc(C(=O)Nc2ccc(CN3CCN(C)CC3)c(C(F)(F)F)c2)cc1Oc1nc(-c2ccsc2)nc2ccn(C)c12 [III-m-18]	2960 nM	2680 nM	3510 nM
Cc1ccc(-c2nc(Oc3cc(C(=O)Nc4ccc(CN5CCN(C)CC5)c(C(F)(F)F)c4)ccc3C)c3[nH]ccc3n2)cc1 [III-m-4]	2720 nM	3860 nM	3460 nM
Cc1ccc(Oc2nc(-c3cccnc3)nc3ccsc23)cc1NC(=O)c1ccc(CN2CCN(C)CC2)c(C(F)(F)F)c1 [VI-j-1]	2700 nM	3960 nM	3380 nM
CN1CCN(Cc2ccc(C(=O)Nc3cc(Oc4nc(-c5ccncc5)nc5[nH]ncc45)ccc3Cl)cc2C(F)(F)F)CC1 [II-k-4]	37.7 nM	104 nM	> 10000 nM
Cc1ccc(Oc2nc(-c3ccc(Cl)cc3)nc3ccn(C)c23)cc1NC(=O)c1ccc(CN2CCN(C)CC2)c(C(F)(F)F)c1 [III-j-12]	2660 nM	2970 nM	2150 nM
Cc1ccc(C(=O)Nc2cc(CN3CCN(C)CC3)cc(C(F)(F)F)c2)cc1Oc1nc(-c2ccncc2)nc2ccn(C)c12 [III-q-4]	901 nM	1270 nM	1330 nM
Cc1ccc(C(=O)Nc2ccc(CN3CCN(C)CC3)c(C(F)(F)F)c2)cc1Oc1nc(-c2ccc(Cl)cc2)nc2cc[nH]c12 [III-m-6]	3770 nM	3950 nM	2790 nM
Cc1ccc(Oc2nc(-c3ccc(N)cc3)nc3ccn(C)c23)cc1NC(=O)c1ccc(CN2CCN(C)CC2)c(C(F)(F)F)c1 [III-j-16]	2040 nM	1470 nM	2280 nM
Cc1ccc(Oc2nc(-c3ccc(Cl)cc3)nc3c2ncn3C)cc1NC(=O)c1ccc(CN2CCN(C)CC2)c(C(F)(F)F)c1 [I-j-3]	1420 nM	1430 nM	1770 nM
CN1CCN(Cc2ccc(C(=O)Nc3cc(Oc4nc(-c5cccnc5)nc5cc[nH]c45)ccc3Cl)cc2C(F)(F)F)CC1 [III-k-1]	1860 nM	1320 nM	4160 nM
Cc1ccc(-c2nc(Oc3ccc(Cl)c(NC(=O)c4ccc(CN5CCN(C)CC5)c(C(F)(F)F)c4)c3)c3c(ccn3C)n2)cc1 [III-k-16]	2090 nM	3190 nM	3630 nM
CN1CCN(Cc2ccc(NC(=O)c3cc(Oc4nc(-c5cccnc5)nc5ccn(C)c45)ccc3Cl)cc2C(F)(F)F)CC1 [III-o-3]	1280 nM	1330 nM	1300 nM
Cc1ccc(Oc2nc(-c3ccc(N)cc3)nc3cc[nH]c23)cc1NC(=O)c1ccc(CN2CCN(C)CC2)c(C(F)(F)F)c1 [III-j-15]	745 nM	620 nM	1200 nM
Cc1ccc(Oc2nc(-c3ccncc3)nc3ccsc23)cc1NC(=O)c1ccc(CN2CCN(C)CC2)c(C(F)(F)F)c1 [VI-j-2]	3.08 nM	17 nM	3940 nM
CN1CCN(Cc2ccc(C(=O)Nc3cc(Oc4nc(-c5ccccc5)nc5ccn(C)c45)ccc3Cl)cc2C(F)(F)F)CC1 [III-k-18]	4120 nM	3990 nM	3890 nM
Cc1ccc(C(=O)Nc2ccc(CN3CCN(C)CC3)c(C(F)(F)F)c2)cc1Oc1nc(-c2cccc(O)c2)nc2ccn(C)c12 [III-m-15]	2960 nM	3930 nM	7210 nM
